Laboratory results: patent US20030170858A1, “Gyrase inhibitors and uses thereof” (priority 2001, published 2003)

Biological target: E. coli gyrase A2B2 (Escherichia coli, UniProt P0AES6)
Assay: E. coli gyrase A2B2 ATPase assay
Type: biochemical
Settings: 40 nM Gyr A2B2 from E coli, 0.9 mM ATP, 30° C., read-out: Activity against E. coli gyrase (Ki)
Procedure: The ATP hydrolysis activity of DNA gyrase was measured by coupling the production of ADP through pyruvate kinase/lactate dehydrogenase to the oxidation of NADH. This method has been described previously. (Tamura and Gellert, 1990, J. Biol. Chem. 265, 21342-21349).
ATPase assays were carried out at 30° C. in buffered solutions containing 100 mM TRIS pH 7.6, 1.5 mM MgCl2, and 150 mM KCl. The coupling system contained (final concentrations) 2.5 mM phosphoenol pyruvate, 200 μM nicotinamide adenine dinucleotide (NADH), 1 mM DTT, 30 ug/ml pyruvate kinase, and 10 ug/ml lactate dehydrogenase. 40 nM enzyme (374 kDa Gyr A2B2 from E coli) and a DMSO solution of the inhibitor to a final concentration of 4% were added and the reaction mixture allowed to incubate for 10 minutes at 30° C. The reaction was then started by the addition of ATP to a final concentration of 0.9 mM and the rate of NADH disappearance at 340 nm, measured over the course of 10 minutes. Ki values were determined from rate versus. inhibitor concentration profiles.

**Q.** How did the Ki turn out when `CCOC(=O)c1cc(-c2sc(-c3cccnc3)nc2CN2CCNCC2)n[nH]1` [IA-67] was run?
**A.** The Ki was 500 to 1500 nM.
